Laboratory results reported in ChEMBL document CHEMBL5346892, “Design and synthesis of benzochromene derivatives as AcrB inhibitors for the reversal of bacterial multidrug resistance” (Eur J Med Chem, 2023).
The source made the active and inactive calls. No cut-off for these calls is given here.

Columns and labels:
Escherichia coli [1] = assay: Synergistic antibacterial activity against wild type Escherichia coli BW25113 assessed as levofloxacin MIC at 16 microg/ml incubated for 18 hrs by broth dilution assay; type: functional; settings: dose 16 µg/ml
Escherichia coli [2] = assay: Synergistic antibacterial activity against wild type Escherichia coli BW25113 assessed as levofloxacin MIC at 8 microg/ml incubated for 18 hrs in presence of colistin by broth dilution assay; type: functional; settings: dose 8 µg/ml
Escherichia coli [3] = assay: Synergistic antibacterial activity against wild type Escherichia coli BW25113 assessed as levofloxacin MIC at 32 microg/ml incubated for 18 hrs in presence of colistin by broth dilution assay; type: functional; settings: dose 32 µg/ml
Escherichia coli [4] = assay: Synergistic antibacterial activity against wild type Escherichia coli BW25113 assessed as levofloxacin MIC at 64 microg/ml incubated for 18 hrs in presence of colistin by broth dilution assay; type: functional; settings: dose 64 µg/ml
Escherichia coli [5] = assay: Synergistic antibacterial activity against wild type Escherichia coli BW25113 assessed as minocycline MIC at 64 microg/ml incubated for 18 hrs in presence of colistin by broth dilution assay; type: functional; settings: dose 64 µg/ml
Escherichia coli [6] = assay: Synergistic antibacterial activity against wild type Escherichia coli BW25113 assessed as levofloxacin MIC at 4 microg/ml incubated for 18 hrs in presence of colistin by broth dilution assay; type: functional; settings: dose 4 µg/ml
Escherichia coli [7] = assay: Synergistic antibacterial activity against wild type Escherichia coli BW25113 assessed as minocycline MIC at 4 microg/ml incubated for 18 hrs in presence of colistin by broth dilution assay; type: functional; settings: dose 4 µg/ml
Escherichia coli [8] = assay: Synergistic antibacterial activity against wild type Escherichia coli BW25113 assessed as fold decrease in erythromycin MIC at 8 microg/ml incubated for 18 hrs by checkboard based microplate reader analysis; type: functional; settings: dose 8 µg/ml
[9] = biological target: T1, Multidrug efflux pump subunit AcrB (Escherichia coli (strain K12)) (UniProt P31224); assay: Inhibition of Escherichia coli BW25113 AcrB assessed as inhibition of nile red efflux at 100 uM incubated for 15 mins
T1 sequence (whole entry): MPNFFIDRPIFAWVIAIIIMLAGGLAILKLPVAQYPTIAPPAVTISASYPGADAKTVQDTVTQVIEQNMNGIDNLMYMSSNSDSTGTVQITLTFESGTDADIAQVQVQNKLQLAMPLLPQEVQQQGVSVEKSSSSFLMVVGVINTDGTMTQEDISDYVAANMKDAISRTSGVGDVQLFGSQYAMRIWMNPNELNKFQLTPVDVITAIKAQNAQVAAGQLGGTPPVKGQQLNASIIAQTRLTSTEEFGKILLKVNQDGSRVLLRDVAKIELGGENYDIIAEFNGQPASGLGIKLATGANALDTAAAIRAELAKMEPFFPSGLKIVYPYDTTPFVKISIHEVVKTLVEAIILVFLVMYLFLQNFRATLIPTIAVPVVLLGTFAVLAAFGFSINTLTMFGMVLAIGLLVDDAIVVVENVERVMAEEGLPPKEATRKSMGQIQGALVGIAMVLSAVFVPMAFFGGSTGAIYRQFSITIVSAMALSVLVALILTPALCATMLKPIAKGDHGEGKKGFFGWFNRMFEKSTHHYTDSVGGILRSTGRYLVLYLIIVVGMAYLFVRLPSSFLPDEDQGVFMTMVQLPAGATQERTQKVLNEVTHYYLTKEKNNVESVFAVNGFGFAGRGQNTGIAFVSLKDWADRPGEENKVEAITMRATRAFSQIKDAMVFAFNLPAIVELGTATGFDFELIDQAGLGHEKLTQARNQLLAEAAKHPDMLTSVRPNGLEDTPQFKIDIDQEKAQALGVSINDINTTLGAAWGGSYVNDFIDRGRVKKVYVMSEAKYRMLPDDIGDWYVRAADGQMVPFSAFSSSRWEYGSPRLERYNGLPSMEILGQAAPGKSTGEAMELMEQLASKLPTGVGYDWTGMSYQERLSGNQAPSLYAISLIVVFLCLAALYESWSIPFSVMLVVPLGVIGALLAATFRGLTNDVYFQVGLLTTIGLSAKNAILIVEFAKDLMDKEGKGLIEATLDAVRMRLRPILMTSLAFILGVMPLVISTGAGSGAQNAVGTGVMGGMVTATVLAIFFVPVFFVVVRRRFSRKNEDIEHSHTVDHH

[10] = biological target: T1, Multidrug efflux pump subunit AcrB (Escherichia coli (strain K12)); assay: Inhibition of Escherichia coli BW25113 AcrB assessed as inhibition of nile red efflux at 200 uM incubated for 15 mins
Cell membrane = assay: Induction of inner membrane permeabilization in Escherichia coli BW25113 assessed as increase in fluorescence intensity at 64 microg/ml incubated for 10 mins by DiOC2 dye based fluorimeter analysis; type: subcellular; settings: dose 64.0 µg/ml
Escherichia coli [11] = assay: Synergistic antibacterial activity against wild type Escherichia coli BW25113 assessed as erythromycin MIC at 0.5 microg/ml incubated for 18 hrs in presence of colistin by broth dilution assay; type: functional; settings: dose 0.5 µg/ml
Escherichia coli [12] = assay: Synergistic antibacterial activity against wild type Escherichia coli BW25113 assessed as erythromycin MIC at 1 microg/ml incubated for 18 hrs in presence of colistin by broth dilution assay; type: functional; settings: dose 1 µg/ml
Escherichia coli [13] = assay: Synergistic antibacterial activity against wild type Escherichia coli BW25113 assessed as erythromycin MIC at 2 microg/ml incubated for 18 hrs in presence of colistin by broth dilution assay; type: functional; settings: dose 2 µg/ml
Escherichia coli [14] = assay: Synergistic antibacterial activity against wild type Escherichia coli BW25113 assessed as levofloxacin MIC at 0.5 microg/ml incubated for 18 hrs in presence of colistin by broth dilution assay; type: functional; settings: dose 0.5 µg/ml
Escherichia coli [15] = assay: Synergistic antibacterial activity against wild type Escherichia coli BW25113 assessed as levofloxacin MIC at 1 microg/ml incubated for 18 hrs in presence of colistin by broth dilution assay; type: functional; settings: dose 1 µg/ml
Escherichia coli [16] = assay: Synergistic antibacterial activity against wild type Escherichia coli BW25113 assessed as levofloxacin MIC at 2 microg/ml incubated for 18 hrs in presence of colistin by broth dilution assay; type: functional; settings: dose 2 µg/ml
Escherichia coli [17] = assay: Synergistic antibacterial activity against wild type Escherichia coli BW25113 assessed as minocycline MIC at 0.5 microg/ml incubated for 18 hrs in presence of colistin by broth dilution assay; type: functional; settings: dose 0.5 µg/ml
Escherichia coli [18] = assay: Synergistic antibacterial activity against wild type Escherichia coli BW25113 assessed as fold decrease in erythromycin MIC at 128 microg/ml incubated for 18 hrs by checkboard based microplate reader analysis; type: functional; settings: dose 128 µg/ml
Escherichia coli [19] = assay: Synergistic antibacterial activity against wild type Escherichia coli BW25113 assessed as fold decrease in erythromycin MIC at 8 to 128 microg/ml incubated for 18 hrs by checkboard based microplate reader analysis; type: functional; settings: dose 8-128 µg/ml
Escherichia coli [20] = assay: Synergistic antibacterial activity against wild type Escherichia coli BW25113 assessed as levofloxacin MIC at 128 microg/ml incubated for 18 hrs in presence of colistin by broth dilution assay; type: functional; settings: dose 128 µg/ml
Escherichia coli [21] = assay: Synergistic antibacterial activity against wild type Escherichia coli BW25113 assessed as fold decrease in minocycline MIC at 64 microg/ml incubated for 18 hrs by checkboard based microplate reader analysis; type: functional; settings: dose 64 µg/ml
Escherichia coli [22] = assay: Synergistic antibacterial activity against wild type Escherichia coli BW25113 assessed as fold decrease in minocycline MIC at 128 microg/ml incubated for 18 hrs by checkboard based microplate reader analysis; type: functional; settings: dose 128 µg/ml

CC1(C)CCc2c(C(=O)N3CCOCC3)cc3c(OCCSc4ccc([N+](=O)[O-])cc4)cccc3c2O1
MIC (Escherichia coli [1]): 0.032 µg/mL
MIC (Escherichia coli [2]): 0.032 µg/mL
MIC (Escherichia coli [3]): 0.032 µg/mL
MIC (Escherichia coli [4]): 0.032 µg/mL
MIC (Escherichia coli [5]): 0.5 µg/mL
MIC (Escherichia coli [6]): 0.032 µg/mL
MIC (Escherichia coli [7]): 1 µg/mL
fold change (FC) (Escherichia coli [8]): 4
inhibition [9]: 100%
inhibition [10]: 100%
Activity (Cell membrane): inactive

CC1(C)CCc2c(C(=O)N3CCOCC3)cc3c(OCCN4CCN(c5ccccc5)CC4)cccc3c2O1
MIC (Escherichia coli [1]): 0.016 µg/mL
MIC (Escherichia coli [2]): 0.032 µg/mL
MIC (Escherichia coli [3]): 0.032 µg/mL
MIC (Escherichia coli [4]): 0.032 µg/mL
MIC (Escherichia coli [11]): 16 µg/mL
MIC (Escherichia coli [12]): 16 µg/mL
MIC (Escherichia coli [13]): 8 µg/mL
MIC (Escherichia coli [14]): 0.032 µg/mL
MIC (Escherichia coli [15]): 0.032 µg/mL
MIC (Escherichia coli [16]): 0.032 µg/mL
MIC (Escherichia coli [17]): 1 µg/mL
fold change (FC) (Escherichia coli [18]): 4
fold change (FC) (Escherichia coli [19]): 16
Activity (Cell membrane): inactive

COc1ccc(OCCCOc2cccc3c4c(c(C(=O)N5CCOCC5)cc23)CCC(C)(C)O4)cc1
MIC (Escherichia coli [1]): 0.032 µg/mL
MIC (Escherichia coli [2]): 0.016 µg/mL
MIC (Escherichia coli [3]): 0.032 µg/mL
MIC (Escherichia coli [4]): 0.032 µg/mL
MIC (Escherichia coli [20]): 0.032 µg/mL
MIC (Escherichia coli [5]): 0.25 µg/mL
fold change (FC) (Escherichia coli [18]): 8
fold change (FC) (Escherichia coli [21]): 4
Activity (Cell membrane): inactive

CC1(C)CCc2c(C(=O)N3CCOCC3)cc3c(OCCCOc4cccc(C(=O)O)c4)cccc3c2O1
MIC (Escherichia coli [1]): 0.016 µg/mL
MIC (Escherichia coli [2]): 0.016 µg/mL
MIC (Escherichia coli [3]): 0.016 µg/mL
MIC (Escherichia coli [4]): 0.008 µg/mL
MIC (Escherichia coli [5]): 0.5 µg/mL
MIC (Escherichia coli [6]): 0.032 µg/mL
MIC (Escherichia coli [7]): 0.5 µg/mL
fold change (FC) (Escherichia coli [22]): 4
